Measured values as given in ChEMBL document CHEMBL1201862, “PubChem BioAssay data set” (2004).
Active and inactive are the calls of the source.

Experiments:
[1] = molecular target: Epstein-Barr nuclear antigen 1 (Epstein-Barr virus (strain B95-8) (HHV-4) (Human herpesvirus 4), UniProt P03211); assay: inhibition of EBV nuclear antigen 1 DNA binding – biochemical, fluorescence polarization, 1536-well, dose response (AID 2381); set-up: species or system human gammaherpesvirus 4;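 note: fluorescence polarization of a Cy5 DNA probe bound by EBNA-1 protein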
[2] = molecular target: Lytic switch protein BZLF1 (Epstein-Barr virus (strain B95-8) (HHV-4) (Human herpesvirus 4), UniProt P03206); assay: inhibition of BZLF1 ZTA DNA binding – biochemical, fluorescence polarization, Epstein-Barr virus, 1536-well, counter-screen for EBNA-1 inhibitor project, dose response (AID 2377); set-up: species or system human gammaherpesvirus 4;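 note: fluorescence polarization of Cy5-labelled ZRE DNA probe bound by purified Zta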
[3] = molecular target: Glyceraldehyde-3-phosphate dehydrogenase (Homo sapiens, UniProt P04406)
Bcl-2-related protein A1 [4] = molecular target: T1, Bcl-2-related protein A1 (Mus musculus, UniProt Q07440); assay: small-molecule antagonists of Bfl-1/BH3 interaction – biochemical, TR-FRET, mouse Bfl-1, confirmation (AID 621);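 note: TR-FRET binding of GST-Bfl-1 to FITC-labelled Bid peptide via terbium antibody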
T1 sequence (Q07440 whole entry): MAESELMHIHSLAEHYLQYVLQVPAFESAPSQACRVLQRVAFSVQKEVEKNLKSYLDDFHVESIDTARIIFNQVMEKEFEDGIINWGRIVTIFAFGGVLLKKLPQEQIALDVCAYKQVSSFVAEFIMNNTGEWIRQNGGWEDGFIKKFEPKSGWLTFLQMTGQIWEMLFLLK

Bcl-2-related protein A1 [5] = molecular target: T1, Bcl-2-related protein A1; assay: Bfl-1 binding inhibitors, SAR follow-up, biochemical, fluorescence polarization (AID 1070)
Coagulation factor XII = molecular target: T2, Coagulation factor XII (Homo sapiens, UniProt P00748); type: functional;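 note: activated factor XIIa alpha cleaving a fluorogenic AMC peptide substrate; inhibitor potency from loss of enzyme activity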
T2 sequence (P00748 whole entry): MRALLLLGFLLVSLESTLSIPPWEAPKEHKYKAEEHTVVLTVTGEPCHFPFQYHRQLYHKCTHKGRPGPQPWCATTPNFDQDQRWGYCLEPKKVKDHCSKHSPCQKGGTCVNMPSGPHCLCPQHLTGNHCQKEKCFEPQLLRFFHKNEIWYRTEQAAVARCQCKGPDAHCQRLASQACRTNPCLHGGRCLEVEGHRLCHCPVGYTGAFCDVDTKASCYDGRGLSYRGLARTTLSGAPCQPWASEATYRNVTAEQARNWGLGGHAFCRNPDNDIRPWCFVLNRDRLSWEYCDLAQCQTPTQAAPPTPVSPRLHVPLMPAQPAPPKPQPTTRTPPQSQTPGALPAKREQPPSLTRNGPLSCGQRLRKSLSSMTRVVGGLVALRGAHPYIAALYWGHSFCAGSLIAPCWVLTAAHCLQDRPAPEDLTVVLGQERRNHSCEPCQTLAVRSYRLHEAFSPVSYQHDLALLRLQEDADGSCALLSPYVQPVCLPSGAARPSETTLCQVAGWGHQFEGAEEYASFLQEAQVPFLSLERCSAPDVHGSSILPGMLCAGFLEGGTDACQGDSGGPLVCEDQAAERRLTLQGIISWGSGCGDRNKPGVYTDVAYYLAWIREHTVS

cells = type: functional, cell-based
[6] = tested on: Streptococcus sp. 'group A'; assay: Streptococcus pyogenes SK(-)GAS viability under kanamycin – luminescence, BacTiterGlo, confirmation, counter-screen for streptokinase expression inhibitor project, dose response (AID 1900); type: functional, organism-based
[7] = Luminescence Cell-Based Dose Response HTS to Identify Inhibitors of 5'UTR Stem-Loop Driven Prion Protein mRNA Translation in H4 Neuroglioblastoma Cells. [Related pubchem assays: 1827 (Project Summary), 1813 (Primary HTS)]; type: functional
Streptococcus = assay: GAS UMAA2166 growth inhibition – luminescence, BacTiterGlo, counter-screen for streptokinase expression inhibitor project, dose response (AID 1915); type: functional, organism-based;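 note: potency for reduction of bacterial viability or growth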
[8] = luciferase reporter signal suppression in cells – H4 neuroglioma cells, luminescence, dose response (AID 1990); type: functional, cell-based
[9] = alpha-synuclein stem-loop luciferase translation blockers – H4 neuroglioma cells, luminescence, confirmation (AID 1988); type: functional, cell-based
[10] = alpha-synuclein stem-loop translation blockers – luminescence, H4 neuroglioblastoma cells, dose confirmation, confirmation (AID 2454); type: functional, cell-based;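 note: H4 neuroglioblastoma cells carrying an alpha-synuclein 5'UTR luciferase reporter; potency for inhibition of the luciferase signal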
[11] = luciferase reporter signal reduction – luminescence, H4-C neuroglioblastoma cells, dose response (AID 2458); type: functional, cell-based;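 note: H4 neuroglioblastoma cells stably carrying a luciferase reporter gene fusion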
HEK293 = assay: Fluorescence-based counterscreen for potentiators or agonists of NPY-Y2: cell-based high-throughput dose response assay to identify inhibitors of cyclic nucleotide gated ion channel (CNGC) activity. In this assay, the parental HEK293 cell line transfected with a cyclic-nucleotide gated ion channel (CNGC)-based cAMP sensor is used to measure inhibition of isoproterenol-induced CNGC activity by test compound.; type: functional; conditions: Homo sapiens
[12] = molecular target: Neuropeptide Y receptor type 1 (Homo sapiens, UniProt P25929); assay: Fluorescence-based counterscreen for agonists of NPY-Y2: cell-based high-throughput dose response assay for agonists of NPY-Y1.; type: functional
[13] = molecular target: Neuropeptide Y receptor type 2 (Homo sapiens, UniProt P49146); assay: Fluorescence-based cell-based high-throughput dose response assay for agonists of NPY-Y2. [Related pubchem assays: 1703 (Screening assay (CNGC inhibitors).), 1359 (Screening assay (NPY-Y2 potentiators or agonists).), 1304 (Screening assay (NPY-Y1 potentiators or agonists).), 1710 (Screening assay (NPY-Y2 agonists).), 1791 (Summary AID.)]; type: functional
Protein skinhead-1 = molecular target: T3, Protein skinhead-1 (Caenorhabditis elegans, UniProt P34707); type: functional
T3 sequence (P34707 whole entry): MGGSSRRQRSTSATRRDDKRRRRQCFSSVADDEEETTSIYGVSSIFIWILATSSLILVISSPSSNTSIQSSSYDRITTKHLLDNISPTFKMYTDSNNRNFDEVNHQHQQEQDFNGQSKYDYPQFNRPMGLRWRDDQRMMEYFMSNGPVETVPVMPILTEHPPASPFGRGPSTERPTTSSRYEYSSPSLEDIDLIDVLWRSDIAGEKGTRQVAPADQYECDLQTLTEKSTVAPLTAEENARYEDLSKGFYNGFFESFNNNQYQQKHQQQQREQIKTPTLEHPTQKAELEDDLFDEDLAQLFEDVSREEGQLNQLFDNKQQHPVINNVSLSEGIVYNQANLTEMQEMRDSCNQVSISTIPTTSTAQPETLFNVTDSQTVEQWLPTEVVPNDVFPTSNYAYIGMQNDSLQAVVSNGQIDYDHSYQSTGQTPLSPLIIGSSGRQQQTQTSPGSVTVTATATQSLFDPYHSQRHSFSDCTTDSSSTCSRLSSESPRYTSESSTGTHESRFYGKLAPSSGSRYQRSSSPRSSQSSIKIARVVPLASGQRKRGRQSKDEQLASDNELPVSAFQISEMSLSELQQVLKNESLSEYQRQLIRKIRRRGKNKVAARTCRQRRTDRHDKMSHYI

Sequence of Epstein-Barr nuclear antigen 1 (P03211 whole entry): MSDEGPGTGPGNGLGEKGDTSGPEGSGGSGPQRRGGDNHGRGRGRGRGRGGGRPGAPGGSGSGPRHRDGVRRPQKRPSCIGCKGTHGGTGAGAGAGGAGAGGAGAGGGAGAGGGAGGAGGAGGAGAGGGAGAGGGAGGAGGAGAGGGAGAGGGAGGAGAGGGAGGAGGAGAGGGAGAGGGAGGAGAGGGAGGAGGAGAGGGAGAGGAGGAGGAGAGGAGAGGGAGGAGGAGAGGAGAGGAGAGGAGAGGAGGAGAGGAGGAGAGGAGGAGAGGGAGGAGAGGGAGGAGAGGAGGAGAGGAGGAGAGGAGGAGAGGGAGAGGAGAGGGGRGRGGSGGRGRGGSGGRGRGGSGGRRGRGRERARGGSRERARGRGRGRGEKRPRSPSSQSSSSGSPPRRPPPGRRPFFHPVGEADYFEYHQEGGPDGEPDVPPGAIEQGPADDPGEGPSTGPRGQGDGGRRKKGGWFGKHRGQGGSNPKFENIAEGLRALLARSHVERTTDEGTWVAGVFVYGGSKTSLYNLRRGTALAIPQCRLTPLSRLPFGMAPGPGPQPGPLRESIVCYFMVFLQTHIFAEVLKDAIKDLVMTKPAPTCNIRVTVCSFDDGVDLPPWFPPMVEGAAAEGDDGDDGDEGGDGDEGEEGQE
Sequence of Neuropeptide Y receptor type 1 (P25929 whole entry): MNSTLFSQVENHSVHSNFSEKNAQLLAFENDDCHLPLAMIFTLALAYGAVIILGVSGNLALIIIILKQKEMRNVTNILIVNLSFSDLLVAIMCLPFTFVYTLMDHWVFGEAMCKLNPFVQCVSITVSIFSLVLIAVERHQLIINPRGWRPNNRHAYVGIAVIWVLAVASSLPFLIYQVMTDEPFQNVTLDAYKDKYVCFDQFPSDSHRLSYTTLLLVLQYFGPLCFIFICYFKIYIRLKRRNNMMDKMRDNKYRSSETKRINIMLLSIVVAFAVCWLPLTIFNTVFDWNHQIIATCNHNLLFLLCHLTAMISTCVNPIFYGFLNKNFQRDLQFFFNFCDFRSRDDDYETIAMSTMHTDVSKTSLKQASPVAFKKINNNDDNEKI
Sequence of Neuropeptide Y receptor type 2 (P49146 whole entry): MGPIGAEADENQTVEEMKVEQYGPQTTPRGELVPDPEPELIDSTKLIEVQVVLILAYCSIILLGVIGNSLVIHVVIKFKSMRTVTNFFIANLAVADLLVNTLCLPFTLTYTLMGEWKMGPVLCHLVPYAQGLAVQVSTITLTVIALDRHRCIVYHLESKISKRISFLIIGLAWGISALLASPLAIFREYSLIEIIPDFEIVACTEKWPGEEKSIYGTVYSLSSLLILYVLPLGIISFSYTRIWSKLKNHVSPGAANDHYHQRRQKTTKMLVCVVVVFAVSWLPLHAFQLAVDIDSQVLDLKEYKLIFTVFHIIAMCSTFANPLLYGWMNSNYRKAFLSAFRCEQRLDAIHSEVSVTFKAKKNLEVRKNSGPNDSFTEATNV
Sequence of Lytic switch protein BZLF1 (P03206 whole entry): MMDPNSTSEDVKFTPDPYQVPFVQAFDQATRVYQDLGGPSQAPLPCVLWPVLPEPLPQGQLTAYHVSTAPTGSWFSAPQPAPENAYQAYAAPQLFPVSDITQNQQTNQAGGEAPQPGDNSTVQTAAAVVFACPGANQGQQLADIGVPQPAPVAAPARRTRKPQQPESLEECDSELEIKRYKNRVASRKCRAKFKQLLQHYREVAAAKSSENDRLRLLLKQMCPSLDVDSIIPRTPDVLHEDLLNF
Sequence of Glyceraldehyde-3-phosphate dehydrogenase (P04406 whole entry): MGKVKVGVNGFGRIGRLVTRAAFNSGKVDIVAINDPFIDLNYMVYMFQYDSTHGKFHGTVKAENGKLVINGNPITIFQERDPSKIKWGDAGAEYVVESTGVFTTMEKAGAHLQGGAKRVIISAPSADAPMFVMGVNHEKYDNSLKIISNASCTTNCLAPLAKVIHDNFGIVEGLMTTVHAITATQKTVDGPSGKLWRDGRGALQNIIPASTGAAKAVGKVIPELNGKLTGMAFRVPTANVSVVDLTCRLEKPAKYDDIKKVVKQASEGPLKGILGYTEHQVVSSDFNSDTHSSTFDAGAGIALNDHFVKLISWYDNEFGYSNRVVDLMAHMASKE

## COc1cccc(N2CCN(S(=O)(=O)c3ccc(-c4cnc(C5CC5)o4)cc3)CC2)c1
[1]
  IC50: 6.91 µM (active)
[2]
  IC50: > 111 µM (not active)

## O=C1C(Cl)=C(Cl)C(=O)N1c1cccc(Cl)c1
[3]
  IC50: > 100 µM (not active)
Bcl-2-related protein A1 [4]
  IC50: 5.17 µM (active)
Bcl-2-related protein A1 [5]
  IC50: 3.41 µM (active)

## COc1ccc(C2CC(C(F)(F)F)n3nc(C(=O)Nc4ccc5c(c4)OCO5)cc3N2)cc1 (stereo not given)
[1]
  IC50: 9.48 µM (active)
Coagulation factor XII
  IC50: > 50 µM (inactive)
[2]
  IC50: > 111 µM (not active)

## CCc1ccc2c(c1)C1(NN=C(c3cccc4ccccc34)S1)C(=O)N2 (stereo not given)
cells
  EC50: 0.875 µM (active)
[6]
  EC50: < 0.06 µM (active)
[7]
  EC50: < 0.1 µM (active)
Streptococcus
  EC50: 0.706 µM (active)
[8]
  EC50: 38.5 µM (active)
[9]
  EC50: < 0.1 µM (active)
[10]
  EC50: 2.85 µM (inconclusive)
[11]
  EC50: 1.25 µM (active)

## CCSc1nnc(NC(=O)CCNS(=O)(=O)c2cc(Br)cnc2N)s1
HEK293
  EC50: 9.32 µM (active)
[12]
  EC50: 11.7 µM (not active)
[13]
  EC50: 13.7 µM (not active)

## CC(C)CC(NC(=O)c1ccc(Cl)cc1)C(=O)OCc1cc([N+](=O)[O-])cc2c1OCOC2 (stereo not given)
HEK293
  EC50: > 35.4 µM (not active)
[12]
  EC50: > 35.4 µM (not active)
[13]
  EC50: > 35.4 µM (not active)

## Clc1ccc(-n2nnc(-c3cccnc3)n2)cc1Cl
Bcl-2-related protein A1 [4]
  IC50: > 100 µM (not active)
Protein skinhead-1
  IC50: 57.3 µM (inactive)
Bcl-2-related protein A1 [5]
  IC50: > 100 µM (not active)
